Data set [1] is described as follows: Release of dye from sol-gel silica gels/microspheres into demineralised water, UV-visible absorbance. Type of data set: physicochemical. On the procedure:
The release of the dye molecule from the gels was performed in 3 ml of demineralised water and the evolution of the absorbance with time was monitored at a fixed wavelength λmax=485 nm using a UV-visible spectrophotometer (Lambda 40, Perkin Elmer, USA). The wavelength of 485 nm corresponds to the absorbance maximum of Orange II in the visible spectrum.
The plots of fraction of dye released versus time (FIG. 1) were obtained by dividing the actual quantity of dye released by the total mass of dye encapsulated in the gel. For the dry gel, this quantity is calculated by dividing the total quantity of dye in the gel rod by the mass of the gel and multiplying it by the mass of the gel sample used in the release experiments. For the wet gel, the fraction released was obtained experimentally from the final absorbance.
To study the influence of the temperature on the release rate, a known quantity of gel was immersed in 3 ml of demineralised water and the absorbance was monitored at a fixed wavelength of 485 nm. One sample was kept at ambient temperature (i.e. 22° C.) and two others were maintained at 37° C. and 60° C. in thermostated water baths.
The release rates of the Orange II samples were monitored at a fixed wavelength of 485 nm while the release rates of the methyl-violet samples were monitored at 584 nm (corresponding to the absorption peak of methyl-violet in the visible spectrum).

For data set [2] the following is noted: spray-dried particles produced from bohemite sols; cited from earlier work.
The nature of data set [3]: Degradation of cis-platin in silica gels on aging at 60° C., examined by transmission electron microscopy. Type of data set: physicochemical. The protocol:
The substitution of metal alkoxides by organically modified silicon alkoxides leads to the replacement of the hydroxyl groups at the surface of the pores by organic moieties (e.g. methyl vinyl, glycidyloxypropyl groups). This prevents interaction between the entrapped bio-molecules and the surface, and potential degradation of the active ingredient. This is illustrated by the encapsulation of cis-platin in silica gels.
A solution containing 20 ml of TMOS (134 mmol), 9.69 ml of cis-platin solution (538 mmol of water) and 21.8 ml of methanol (538 mmol) was stirred for 30 minutes. 4 ml aliquots of the solution were transferred to 5 ml screw capped poly-propylene vials and placed in an oven at 60° C. to gel. Once gelation occurred the samples were aged at 60° C. for 15 days. The cap was then removed and the samples were allowed to dry for 3 days at 60° C.
An identical procedure was used to prepare gels from a solution containing 3 ml of TMOS, 2.88 ml of MTMS and 2.91 ml of cis-platin solution.
After 3 days of aging at 60° C. the gels prepared from TMOS started to darken, ultimately yielding a black gel after 15 days aging. […] The two dry gels were subsequently examined by transmission electron microscopy using a JEOL 201 OF field emission gun microscope.

Data set [4] is described as follows: Release of cycloheximide and cis-platin from gels, UV absorbance. Type of data set: physicochemical. As to conditions: release from gels in 3 ml of 0.9% NaCl, 300 nm. The protocol: The first series of samples was prepared by mixing 5.51 ml of TMOS (37 mmol), 2.67 ml of either drug solutions (148 mmol of H2O) and 6 ml of methanol (148 mmol). 4 ml aliquots of the solutions were transferred to 5 ml screw capped poly-propylene vials and placed in an oven at 60° C. to gel. Once gelation occurred the samples were aged at 60° C. for 7 days. The cap was then removed and the samples were allowed to dry for 3 days at 60° C.
A second series of samples was prepared by combining 3 ml of TMOS (20 mmol), 2.88 ml of MTMS (20 mmol) and 2.91 ml of the respective drug solution (161 mmol of H2O). These samples were processed as described above.
The release of cycloheximide from a known quantity of gel was investigated in 3 ml of demineralised water and the absorbance was monitored at a fixed wavelength, .λmax=201 nm. The release of cis-platin from a known quantity of gel was investigated in 3 ml of 0.9% NaCl and the absorbance was monitored at a fixed wavelength, λmax=300 nm.

As for `O=S(=O)([O-])c1ccc(N=Nc2c(O)ccc3ccccc23)cc1.[Na+]` [Orange II, 4-(2-hydroxy-1-napthylazo) benzene sulfonic acid, sodium salt], in data set [1] (0-50% of TMOS substituted with MTMS, W=4, D=4), the “release rate versus MTMS content” value is “decrease with increasing MTMS content”. In data set [1] (gels W=4, D=0, dried 1, 3 or 7 days at ambient, 60° or 104° C.), the “release rate versus drying time and temperature” value is “decrease with increasing time and temperature”. The “pH of maximum release rate” value in data set [1] (gels W=4, D=4, dye solution pH 1-11) is listed as 7. Also, in data set [1] (gels W=4, D=4, synthesised using acid as a catalyst), the “release rate versus pH, acid catalyst” value is listed as “increase with increasing pH”. Further, the “release rate versus pH, base catalyst” value in data set [1] (gels W=4, D=4, synthesised using base as a catalyst) is “decrease with increasing pH”. The “release rate versus syneresis time” value in data set [1] (gels aged at 60° C. for 0-30 days) was “increase with syneresis time”. Also, the “release rate of the dye versus W and D” value in data set [1] (gels with W = 2-8, D = 0-8, release in demineralised water, 485 nm) was “increase with increasing W and decreasing D”. Besides, in data set [1] (microspheres dried from ambient to 100° C. for 2 days), the “release rate of microspheres versus drying temperature” value is on record as “decreases with increasing drying temperature”. For the same compound, in data set [1] (release at 22° C., 37° C. and 60° C. in demineralised water), the “release rate versus temperature of the release media” value is recorded as “increase with increasing temperature”.

For the compound `CN(C)CCCN1c2ccccc2CCc2ccccc21` [imipramine], the “release of encapsulated imipramine” value in data set [2] is recorded as “released within five minutes”.

As for Cis Pt(NH3)2Cl2 [cis-platin], in data set [3] (50% of TMOS substituted by MTMS), the “reaction of cis-platin with the matrix, MTMS substituted gels” value is “prevents any such precipitation”. In addition, the “reaction of cis-platin with the matrix, silica gels” value in data set [3] (encapsulated in silica gels (TMOS)) is “precipitation of metallic platinum nanoparticles”. In data set [4], the “release rate compared with cycloheximide” value was “greater”.

As to methyl violet, the “release rate compared with Orange II” value in data set [1] (gels W=4, D=4, aged 15 or 30 days at 60° C., monitored at 584 nm) is recorded as “significantly smaller”.
